Laboratory results as given in US12174172B2, “Method for evaluating the efficacy of a composition in reducing the effects of cancer therapeutics on skin” (Johnson & Johnson Consumer Inc., priority 2019, dated 2024).

Tested on: SkinEthic Reconstructed Human Epidermis (RHE)
Assay: Skin barrier function: trans-epidermal water loss (TEWL) on reconstructed human epidermis
Format: cell-based
Details: SDS 0.5% topical
Protocol: The effect of drugs on the skin barrier function was assessed by measuring trans-epidermal water loss (TEWL) rates on SkinEthicTM Reconstructed Human Epidermis (RHE) model (Episkin, Lyon, France) using Tewitro® TW 24 (Courage+Khazaka electronic GmbH, Köln, Germany). This instrument allows 24 simultaneous measurements on RHE. TEWL was analyzed at 33° C. in an incubator. […] Petrolatum, a highly hydrophobic hydrocarbon, water-repelling and insoluble in water was used to block water evaporation at the RHE surface (negative control). […] DMSO was used in the same proportion in the vehicle. SkinEthicTM RHE (Episkin, Lyon, France), is an in vitro reconstructed human epidermis from normal human keratinocytes cultured on an inert polycarbonate filter at the air-liquid interface, in a chemically defined medium. This model exists at different stages of maturity. This model is histologically similar to in vivo human epidermis. See […].com/SkinEthic%20RHE. The Tewitro® TW 24 is a device that measures water evaporation from cultured tissue sets (wells in a plate with medium) in up to 24 wells simultaneously. See https://www.courage-[…].

sodium dodecyl sulfoxide [SDS]
increase of the TEWL rate (day 1): 98%
increase of the TEWL rate (day 2, afatinib 100 nM in the media): 77%
increase of the TEWL rate (day 5, afatinib 100 nM in the media): 58%
increase of the TEWL rate (day 7, afatinib 100 nM in the media): non-significant increase
